Experimental data reported in US12359182B2, “Polypeptide variants” (Novozymes A/S, priority 2020, dated 2025).

How the values were obtained:
[1] = target: T1, Bifidobacterium bifidum lactase of SEQ ID NO: 1, variant G856E (Bifidobacterium bifidum, UniProt A4K5H9, G888E); experiment: biochemical
T1 construct: purified sample
T1 sequence (A4K5H9 33-1336 G888E): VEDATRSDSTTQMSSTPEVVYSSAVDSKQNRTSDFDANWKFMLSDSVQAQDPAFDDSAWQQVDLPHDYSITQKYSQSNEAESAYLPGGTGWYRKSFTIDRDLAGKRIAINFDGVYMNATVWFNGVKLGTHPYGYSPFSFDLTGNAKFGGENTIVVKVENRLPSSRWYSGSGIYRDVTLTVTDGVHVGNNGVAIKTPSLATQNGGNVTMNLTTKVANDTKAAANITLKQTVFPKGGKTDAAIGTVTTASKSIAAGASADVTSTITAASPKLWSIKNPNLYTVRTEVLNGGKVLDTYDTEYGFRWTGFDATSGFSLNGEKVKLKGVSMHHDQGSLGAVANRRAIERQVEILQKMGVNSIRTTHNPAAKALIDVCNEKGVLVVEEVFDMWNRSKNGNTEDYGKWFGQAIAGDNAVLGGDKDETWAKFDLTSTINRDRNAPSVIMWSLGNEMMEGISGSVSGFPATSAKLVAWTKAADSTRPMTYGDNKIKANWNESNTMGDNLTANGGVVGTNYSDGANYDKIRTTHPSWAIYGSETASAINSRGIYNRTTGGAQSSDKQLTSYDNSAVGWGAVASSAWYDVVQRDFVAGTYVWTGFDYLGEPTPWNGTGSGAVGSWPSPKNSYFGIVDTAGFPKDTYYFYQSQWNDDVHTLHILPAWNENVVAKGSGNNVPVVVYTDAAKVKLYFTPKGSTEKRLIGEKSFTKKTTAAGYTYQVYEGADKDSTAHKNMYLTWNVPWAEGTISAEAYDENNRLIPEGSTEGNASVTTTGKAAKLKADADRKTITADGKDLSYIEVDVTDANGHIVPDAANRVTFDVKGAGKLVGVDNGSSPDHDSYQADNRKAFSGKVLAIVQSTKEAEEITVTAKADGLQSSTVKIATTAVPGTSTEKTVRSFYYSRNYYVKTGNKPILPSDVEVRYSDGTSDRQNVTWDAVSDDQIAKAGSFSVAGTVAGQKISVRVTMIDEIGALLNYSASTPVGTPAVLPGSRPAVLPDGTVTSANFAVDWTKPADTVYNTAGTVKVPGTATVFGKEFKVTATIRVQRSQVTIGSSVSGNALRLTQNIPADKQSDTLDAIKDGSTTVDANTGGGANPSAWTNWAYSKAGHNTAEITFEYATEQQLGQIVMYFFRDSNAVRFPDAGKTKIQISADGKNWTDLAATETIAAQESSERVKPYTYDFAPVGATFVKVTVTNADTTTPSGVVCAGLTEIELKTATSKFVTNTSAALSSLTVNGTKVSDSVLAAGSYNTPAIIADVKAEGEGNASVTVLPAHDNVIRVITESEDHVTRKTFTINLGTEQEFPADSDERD
Text: (§1) *Note regarding backbone: Some clones of our template backbone for the site saturation library (SEQ ID NO: 1) contain a G856E mutation, so all substitution variants we describe are in the backbone context of SEQ ID NO: 1 with either Gly or Glu at position 856.

[2] = tested on: Bifidobacterium bifidum lactase of SEQ ID NO: 1, variant G856E; experiment: biochemical; details: pH 6.5; E856 relative to G856
Text: as §1

[3] = target: T2, Bifidobacterium bifidum lactase, SEQ ID NO: 1 (G856 backbone) (Bifidobacterium bifidum, UniProt A4K5H9); experiment: biochemical
T2 construct: purified sample
T2 sequence (A4K5H9 entry or part of it): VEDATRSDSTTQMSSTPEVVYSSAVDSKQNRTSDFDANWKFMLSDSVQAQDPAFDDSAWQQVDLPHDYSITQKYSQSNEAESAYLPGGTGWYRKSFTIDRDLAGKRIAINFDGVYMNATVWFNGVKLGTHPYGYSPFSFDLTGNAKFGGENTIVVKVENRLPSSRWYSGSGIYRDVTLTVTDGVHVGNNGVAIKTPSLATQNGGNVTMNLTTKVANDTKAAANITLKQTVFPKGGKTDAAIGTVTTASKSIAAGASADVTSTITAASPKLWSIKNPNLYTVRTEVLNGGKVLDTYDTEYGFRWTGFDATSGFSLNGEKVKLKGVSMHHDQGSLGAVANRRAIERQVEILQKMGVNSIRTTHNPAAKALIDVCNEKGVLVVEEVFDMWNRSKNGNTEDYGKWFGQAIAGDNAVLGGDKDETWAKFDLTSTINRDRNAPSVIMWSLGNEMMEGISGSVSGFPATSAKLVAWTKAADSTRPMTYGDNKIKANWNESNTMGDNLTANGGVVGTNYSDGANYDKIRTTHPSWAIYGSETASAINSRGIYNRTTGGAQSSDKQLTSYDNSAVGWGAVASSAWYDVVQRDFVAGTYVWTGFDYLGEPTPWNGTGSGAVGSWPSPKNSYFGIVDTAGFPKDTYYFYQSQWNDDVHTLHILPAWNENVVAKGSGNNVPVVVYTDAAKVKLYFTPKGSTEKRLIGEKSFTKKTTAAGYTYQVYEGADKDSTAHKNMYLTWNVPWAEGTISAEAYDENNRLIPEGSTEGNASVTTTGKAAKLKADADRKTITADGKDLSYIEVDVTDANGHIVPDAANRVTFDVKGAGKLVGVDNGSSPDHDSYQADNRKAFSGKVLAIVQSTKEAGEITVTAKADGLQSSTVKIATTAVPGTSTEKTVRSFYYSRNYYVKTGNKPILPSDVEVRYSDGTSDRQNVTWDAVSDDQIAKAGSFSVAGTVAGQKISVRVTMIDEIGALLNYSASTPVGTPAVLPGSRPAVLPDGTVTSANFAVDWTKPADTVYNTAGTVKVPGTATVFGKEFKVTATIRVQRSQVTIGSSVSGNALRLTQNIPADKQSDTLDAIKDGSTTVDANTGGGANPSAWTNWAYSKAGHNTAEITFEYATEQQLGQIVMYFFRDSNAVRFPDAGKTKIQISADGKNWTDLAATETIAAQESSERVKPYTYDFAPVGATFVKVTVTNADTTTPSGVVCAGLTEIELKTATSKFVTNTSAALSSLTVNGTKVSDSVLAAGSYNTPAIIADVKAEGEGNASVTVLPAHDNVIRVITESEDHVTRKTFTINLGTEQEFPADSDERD
Text: as §1

[4] = tested on: Bifidobacterium bifidum lactase of SEQ ID NO: 1, variant G856E; experiment: Km at pH 6.5, backbone with Glu at position 856 (purified samples); format: biochemical; details: E856 relative to G856
Text: as §1

[5] = target: Bifidobacterium bifidum lactase, parent, SEQ ID NO: 1 (Bifidobacterium bifidum, UniProt A4K5H9); experiment: galactose inhibition assay (GI-IF), ONPG hydrolysis with and without D-(+)-Galactose (80 mM), Abs405; format: biochemical; details: ONPG 10.66 mM, MES 100 mM, pH 6.0, 30 min at 23° C., normalized reference
Bifidobacterium bifidum lactase, parent, SEQ ID NO: 1, sequence (A4K5H9 entry or part of it): as above
Description: (§2) Stop solution is added (Na2CO3, 10% w/v in H2O), and the absorbance at 405 nm is recorded. “Abs405 Galactose sample” is the absorbance for the lactase grown in assay solution, “Abs405 Galactose Blank” is the absorbance for non-inoculated assay solution, “Abs405 Reference sample” is the absorbance for the lactase grown in reference solution, and “Abs405 Reference Blank” is the absorbance for non-inoculated reference solution.

[6] = target: Bifidobacterium bifidum lactase (SEQ ID NO: 1) variant E2G (Bifidobacterium bifidum, UniProt A4K5H9, E34G); format: biochemical; details: D-(+)-Galactose 80 mM, ONPG 10.66 mM, pH 6.0, 30 min at 23° C., ratio of activity with/without galactose relative to wild type SEQ ID NO: 1 (IF=1.0), above 1 = decreased galactose inhibition
Bifidobacterium bifidum lactase (SEQ ID NO: 1) variant E2G, sequence (A4K5H9 entry or part of it E34G): as the sequence (A4K5H9 entry or part of it) above, with E2G counted along it
Description: as §2

[7] = target: Bifidobacterium bifidum lactase (SEQ ID NO: 1) variant V1D (Bifidobacterium bifidum, UniProt A4K5H9, V33D); format: biochemical; details: D-(+)-Galactose 80 mM, ONPG 10.66 mM, pH 6.0, 30 min at 23° C., ratio of activity with/without galactose relative to wild type SEQ ID NO: 1 (IF=1.0), above 1 = decreased galactose inhibition
Bifidobacterium bifidum lactase (SEQ ID NO: 1) variant V1D, sequence (A4K5H9 entry or part of it V33D): as the sequence (A4K5H9 entry or part of it) above, with V1D counted along it
Description: as §2

[8] = target: Bifidobacterium bifidum lactase (SEQ ID NO: 1) variant V1F (Bifidobacterium bifidum, UniProt A4K5H9, V33F); format: biochemical; details: D-(+)-Galactose 80 mM, ONPG 10.66 mM, pH 6.0, 30 min at 23° C., ratio of activity with/without galactose relative to wild type SEQ ID NO: 1 (IF=1.0), above 1 = decreased galactose inhibition
Bifidobacterium bifidum lactase (SEQ ID NO: 1) variant V1F, sequence (A4K5H9 entry or part of it V33F): as the sequence (A4K5H9 entry or part of it) above, with V1F counted along it
Description: as §2

[9] = target: Bifidobacterium bifidum lactase (SEQ ID NO: 1) variant V1K (Bifidobacterium bifidum, UniProt A4K5H9, V33K); format: biochemical; details: D-(+)-Galactose 80 mM, ONPG 10.66 mM, pH 6.0, 30 min at 23° C., ratio of activity with/without galactose relative to wild type SEQ ID NO: 1 (IF=1.0), above 1 = decreased galactose inhibition
Bifidobacterium bifidum lactase (SEQ ID NO: 1) variant V1K, sequence (A4K5H9 entry or part of it V33K): as the sequence (A4K5H9 entry or part of it) above, with V1K counted along it
Description: as §2

[10] = target: Bifidobacterium bifidum lactase (SEQ ID NO: 1) variant V1R (Bifidobacterium bifidum, UniProt A4K5H9, V33R); format: biochemical; details: D-(+)-Galactose 80 mM, ONPG 10.66 mM, pH 6.0, 30 min at 23° C., ratio of activity with/without galactose relative to wild type SEQ ID NO: 1 (IF=1.0), above 1 = decreased galactose inhibition
Bifidobacterium bifidum lactase (SEQ ID NO: 1) variant V1R, sequence (A4K5H9 entry or part of it V33R): as the sequence (A4K5H9 entry or part of it) above, with V1R counted along it
Description: as §2

`OC[C@H]1OC(O)[C@H](O)[C@@H](O)[C@H]1O` (stereo partly drawn) [galactose, D-(+)-Galactose] was tested, and the Ki [1] was 40.6 mM, the “IF (Ki galactose inhibition, E856 vs. G856)” value [2] was 0.98 and the Ki [3] was 41.5 mM.
In the case of `OC[C@H]1O[C@@H](O[C@H]2[C@H](O)[C@@H](O)C(O)O[C@@H]2CO)[C@H](O)[C@@H](O)[C@H]1O` (stereo partly shown) [lactose], the “IF (Km, E856 vs. G856)” value [4] is reported as 0.98.
`OC[C@H]1OC(O)[C@H](O)[C@@H](O)[C@H]1O` (stereo partly drawn) [D-(+)-Galactose] was tested, and the “galactose inhibition improvement factor (GI-IF)” value [5] was 1.0, the “GI-IF (galactose inhibition assay improvement factor)” value [6] was 1.17 and the “GI-IF (galactose inhibition assay improvement factor)” value [7] was 1.23. For the same compound, the “GI-IF (galactose inhibition assay improvement factor)” value [8] was 1.25, the “GI-IF (galactose inhibition assay improvement factor)” value [9] was 1.11 and the “GI-IF (galactose inhibition assay improvement factor)” value [10] was 1.12.
